Reference: patent US20130338115A1, “USE OF MITOCHONDRIALLY-ADDRESSED COMPOUNDS FOR PREVENTING AND TREATING CARDIOVASCULAR DISEASES” (Mitotech SA, priority 2007, published 2013)

What was measured:
Wistar male rats = experiment: Regional myocardial ischemia and reperfusion in anesthetized rats; format: in vivo, rat
Method: To study a possibility of reduction of the irreversible damage of cardiomyocytes by SkQ1 in vivo a model of regional myocardial ischemia and reperfusion in anesthetized rats was used. Experiments were performed on Wistar male rats weighing 300-450 grams, fed a standard diet. In the control animals during three weeks received NaBr dissolved in 0.1 M phosphate buffer (pH 6.0), at a dose of 250 nmol/kg body weight/day. Animals of the experimental group during three weeks together with food received SkQ1 dissolved in 0.1 M phosphate buffer (pH 6.0), at a dose of 250 nmol/kg body weight/day.
In urethane-anesthetized animals ([…] body weight intraperitoneally administered), artificial ventilation of the lungs with room air with added oxygen at a rate of 60-80 beats per minute was carried out. Indicators of the acid-base balance of arterial blood (pH, pO2 and pCO2) during the entire experiment were controlled with the use of acid-base gas analyzer ABL-30 (Radiometer) and maintained at a physiological level.
Catheterization of the carotid artery was performed for recording arterial pressure (Mingograf 804, Siemens-Elema). The chest was opened by longitudinal dissection of the sternum and the heart was freed from the pericardium. To induce regional myocardial ischemia, the left ventricle was pierced with an atraumatic needle 5-0 under the left appendage in the direction perpendicular to long axis of the heart. Tightening the ligature at the anterior descending coronary artery (ADA) located deep in the pierced myocardium ceased blood supply to a portion of the myocardium, weakening of the ligature restored coronary flow.
The dissection is followed by a 30-min period of stabilization of hemodynamic parameters (the initial state). Then anterior descending coronary artery was occluded for 40 min followed by 60 min of reperfusion. At the end of the experiment, to identify the risk zone (RZ) and the intact zone, anterior descending coronary artery was occluded and a 2% Evans solution (2 ml) was injected as a bolus into the jugular vein. Then the heart was cut out and the left ventricle (LV) was separated and frozen at −20° C.
To measure infarct size, the method for histochemical localization of the risk zone (RZ) and myocardial infarction (MI) by tissue staining with 2,3,5-triphenyltetrazolium chloride (TFT) was used (Kitakaze M., Takashima S., Funaya H., Minamino T., Node K., Shinozaki Y., Mori H., Hori M., 1997. Temporary acidosis during reperfusion limits myocardial infarct size. Am. J. Physiol.; 272: H2071-H207). […] The obtained samples were scanned, MI and RZ sizes were determined by the method of computer-assisted planimetry using the Imagecal program. […]

[1] = system: isolated hearts of Wistar rats; experiment: H2O2-induced development of arrhythmias in isolated rat hearts after 3 weeks oral SkQ1; format: in vivo; settings: for normal rhythm maintained, % of the experiments: hydrogen peroxide 100 μm into coronary bed
Method: Wistar rats received preparation SkQ1 daily for 3 weeks at doses of 2.0, 0.2 and 0.02 nmol/kg body weight by its addition to the curd. In the control group of animals, the feed was supplemented with sodium bromate in a similar dose. Experiments on isolated hearts were performed 1-2 days after the end of administration of the preparations by a standard technique under conditions of retrograde perfusion of the heart with a controlled rate of perfusion and a measurement of spontaneous heart rate. The effect of SkQ1 on the incidence of arrhythmias induced by injection of hydrogen peroxide (100 μm) into the coronary bed of hearts was studied. This model reproduces some features of a situation of oxidative stress that develops during reperfusion of ischemic heart.

rat heart = settings: pre-perfusion of rat heart; Kutala et al. 2006; cited from earlier work
[2] = SkQ1 250 nmol/kg body weight/day with food for three weeks, initial state

CC1=C(C)C(=O)C(CCCCCCCCCC[P+](c2ccccc2)(c2ccccc2)c2ccccc2)=CC1=O [SkQ1]
RZ/LV (risk zone/weight of the left ventricle), difference between the groups (Wistar male rats; 250 nmol/kg body weight/day, three weeks, 40 min occlusion, 60 min reperfusion): no differences
MI/RZ ratio (myocardial infarction/risk zone), times less as compared to the control (Wistar male rats; 250 nmol/kg body weight/day, three weeks, 40 min occlusion, 60 min reperfusion, P<0.005): 1.7 times
effect on blood pressure (Wistar male rats; [2]): No effect
effect on heart rate (Wistar male rats; [2]): No effect
normal rhythm maintained, % of the experiments ([1]; SkQ1 0.02 nmol/kg daily for 3 weeks): 55%
normal rhythm maintained, % of the experiments ([1]; SkQ1 0.2 nmol/kg daily for 3 weeks): 70%
number of hearts with documented normal rhythm ([1]; SkQ1 0.2 nmol/kg, 23 experiments): 16 hearts
normal rhythm maintained, % of the experiments ([1]; SkQ1 2.0 nmol/kg daily for 3 weeks): 58%

CC1(C)CC(O)CC(C)(C)N1[O] [Tempol]
reduction of infarct size caused by subsequent ischemia/reperfusion (rat heart): 1.5 times
